What all share (assay): In vitro antibacterial activity, microtitration dilution method (MIC)
Holding throughout (format): cell-based

In assay [1] the test system is Klebsiella pneumoniae MGH-2. To be noted: MGH2, read-out: Minimal Inhibitory Concentration (MIC). The text has this:
(§1) The compounds of the invention display anti-bacterial activity when tested by the microtitration dilution method as described in Heifetz, et al, […]. Agents & Chemoth., 6, 124 (1974), which is incorporated herein by reference. By use of the above reference method, the following minimum inhibitory concentration value (MICs in μg/mL) shown in Table I were obtained for representative compounds of the invention.

Assay [2] has as its system Staphylococcus aureus H228. Particulars: read-out: Minimal Inhibitory Concentration (MIC).
From the text: as §1

The test system of assay [3] is Streptococcus pneumoniae SV-1. Particulars: SV1, read-out: Minimal Inhibitory Concentration (MIC).
From the text: as §1

Assay [4] deals with Enterobacter cloacae MA 2646. To be noted: MA2646, read-out: Minimal Inhibitory Concentration (MIC). The text has this:
(§2) The compounds of the invention display anti-bacterial activity when tested by the microtitration dilution method as described in Heifetz, et al, Antimicr. Agents & Chemoth., 6, 124 (1974), which is incorporated herein by reference.
(§3) By use of the above reference method, the following minimum inhibitory concentration value (MICs in μg/mL) shown in Table I were obtained for representative compounds of the invention.

For a further assay, the system named is Proteus rettgeri M 1771. Particulars: Providencia rettgeri, M1771, read-out: Minimal Inhibitory Concentration (MIC).
From the text: as §2, §3

Assay [5] has as its system Streptococcus pyogenes C-203. To be noted: C203, read-out: Minimal Inhibitory Concentration (MIC).
From the text: as §2, §3

Assay [6] relates to Streptococcus faecalis MGH-2. Particulars: Enterococcus faecalis, MGH2, read-out: Minimal Inhibitory Concentration (MIC).
From the text: as §2, §3

In a further assay the test system is Escherichia coli H56. To be noted: read-out: Minimal Inhibitory Concentration (MIC).
From the text: as §2, §3

Assay [7] deals with Staphylococcus aureus UC-76. Particulars: UC76, read-out: Minimal Inhibitory Concentration (MIC).
From the text: as §2, §3

Assay [8] concerns Pseudomonas aeroginosa UI-18. To be noted: UI18, read-out: Minimal Inhibitory Concentration (MIC).
From the text: as §2, §3

Another assay relates to Escherichia coli Vogel. Particulars: read-out: Minimal Inhibitory Concentration (MIC).
From the text: as §2, §3

≈ marks a conversion by molar mass, not a printed value.

Take `C=Cc1c(N2CC[C@@H](CNCC)C2)c(F)cc2c(=O)c(C(=O)O)cn(C3CC3)c12` [Ex. 3, 1-Cyclopropyl-8-ethenyl-7-[3(S)-(ethylamino)methyl-1-pyrrolidine]-6-fluoro-1,4-dihydro-4-oxo-3-quinolinecarboxylic acid]: the MIC in [1] was determined as 0.4 µg/mL (≈ 1 µM); in assay [2], 0.006 µg/mL (≈ 0.015 µM); in assay [3], 0.003 µg/mL (≈ 0.00751 µM); in assay [4] it was 0.2 µg/mL (≈ 0.501 µM); in the assay on Proteus rettgeri M 1771, 0.4 µg/mL (≈ 1 µM); in assay [5] it was 0.013 µg/mL (≈ 0.0325 µM). Also, the MIC in assay [6] was found to be 0.013 µg/mL (≈ 0.0325 µM); in the assay on Escherichia coli H56, 0.1 µg/mL (≈ 0.25 µM); in assay [7], 0.003 µg/mL (≈ 0.00751 µM); in [8] it was 3.1 µg/mL (≈ 7.76 µM); in the assay with Escherichia coli Vogel, 0.1 µg/mL (≈ 0.25 µM).
Turning to `C=Cc1c(N2CCNC(C)C2)c(F)cc2c(=O)c(C(=O)O)cn(C3CC3)c12` (stereo not drawn) [Ex. 1, 1-Cyclopropyl-8-ethenyl-6-fluoro-1,4-dihydro-7-(3-methyl-1-piperazinyl)-4-oxo-3-quinolinecarboxylicacid], the MIC in [1] turned out to be 0.2 µg/mL (≈ 0.538 µM); in [2], 0.2 µg/mL (≈ 0.538 µM); in assay [3], 0.2 µg/mL (≈ 0.538 µM); in assay [4], 0.1 µg/mL (≈ 0.269 µM); in the assay on Proteus rettgeri M 1771, 0.4 µg/mL (≈ 1.08 µM); in assay [5], 0.2 µg/mL (≈ 0.538 µM). Further, the MIC in assay [6] was found to be 0.4 µg/mL (≈ 1.08 µM); in the assay with Escherichia coli H56 it was 0.05 µg/mL (≈ 0.135 µM); in assay [7], 0.1 µg/mL (≈ 0.269 µM); in [8], 1.6 µg/mL (≈ 4.31 µM); in the assay on Escherichia coli Vogel, 0.1 µg/mL (≈ 0.269 µM).
Regarding `C=Cc1c(N2CCNCC2)c(F)cc2c(=O)c(C(=O)O)cn(C3CC3)c12` [Ex. 2, 1-Cyclopropyl-8-ethenyl-6-fluoro-1,4-dihydro-4-oxo-7-(1-piperazinyl)-3-quinolinecarboxylic acid], the MIC in assay [1] turned out to be 0.2 µg/mL (≈ 0.56 µM); in assay [2] it was 0.4 µg/mL (≈ 1.12 µM); in [3] it was 0.4 µg/mL (≈ 1.12 µM); in assay [4], 0.1 µg/mL (≈ 0.28 µM); with Proteus rettgeri M 1771 it was 0.4 µg/mL (≈ 1.12 µM); in assay [5], 0.4 µg/mL (≈ 1.12 µM). In addition, the MIC in [6] worked out at 0.4 µg/mL (≈ 1.12 µM); in the assay with Escherichia coli H56, 0.05 µg/mL (≈ 0.14 µM); in assay [7], 0.1 µg/mL (≈ 0.28 µM); in assay [8] it was 1.6 µg/mL (≈ 4.48 µM); with Escherichia coli Vogel it was 0.1 µg/mL (≈ 0.28 µM).

For the origin of these results see US5116834A, “Quinolinecarboxylic acid antibacterial agents” (Warner-Lambert Company, priority 1991, dated 1992).
